For assay [1], the system named is male Swiss Webster mice. The assay is described as follows: Locomotor activity test, Swiss Webster mice. Format: in vivo, mouse. The conditions noted are these: IP, photobeam interruptions, versus vehicle. As to the method: (§1) Locomotor Activity and the FST. To evaluate the isolated compounds for antidepressant-like activity, male Swiss Webster mice (Harlan, Indianapolis, Ind.) (25-30 g weight) were used. Animals were housed in groups of five with a 12 h light/12 h dark cycle. Food and water were provided at libitum. All procedures involving animals were performed as approved by the Institutional Animal Care and Use Committee of the University of Mississippi. Animals were randomly divided into groups (n=6-10/group). Each group was injected IP with either the compound (1-20 mg/kg), desipramine (20 mg/kg), or vehicle (saline, 10% ethanol or 10% ethanol/1% DMSO). Following injection, locomotor activity was monitored using an automated activity monitoring system (San Diego Instruments, San Diego, Calif.). Each mouse was placed in a Plexiglas enclosure and locomotor activity was recorded as the number of photobeam interruptions for 30 min after drug injection. The activity for the last ten min was quantified and analyzed. Immediately at the end of the locomotor session, individual mice were subjected to the FST. The mice were individually placed in a clear plastic cylinder (23 cm high, 10 cm internal diameter) filled with deionized water (8 cm high) at 25° C. The mice were recorded with a video camera (positioned at about 30 cm above the cylinder) for a total of 6 min. The total period of immobility during the last 4 min was timed by three independent observers. The mean immobility time was then calculated. A mouse was judged to be immobile when it remained afloat, making only minimal movements to keep its head above water.
(§2) Effect of select compounds on locomotor activity. Since reductions in immobility time is the primary criterion to assess antidepressant like activity in both the FST and TST, it is crucial to confirm that the effects observed in both tests are not attributed to specific stimulant action of the tested compounds, which would be reflected as enhancement of the locomotor activity. Accordingly, the effect of tested compounds on locomotor activity was evaluated using an automated activity monitoring system.

The test system of another assay is HCV. The assay is described as follows: Activity against HCV.
Assay [2] concerns male Swiss Webster mice. The assay can be described thus: Porsolt forced swim test (FST). Format: in vivo, mouse. The conditions noted are these: male Swiss Webster mice, IP, immobility during last 4 min of 6 min swim, versus vehicle. As to the method:
as §1
For the FST, immobility times of the three independent rates were averaged for each mouse and data were analyzed using one way analysis of variance (ANOVA) followed by Bonferroni Multiple comparison posthoc tests to determine statistical differences from the corresponding vehicle control. Chick distress vocalization data were analyzed by two-way repeated measures ANOVA, one-way ANOVA and simple effects analyses with post-hoc comparisons conducted using Fisher's LSD test. p-Values less than 0.05 were considered statistically significant.
(§3) Porsolt R D, et al. Behavioral Despair In Mice: A Primary Screening Test for Antidepressants, 229 Arch. Int. Pharmacodyn. 327-36 (1977). […] In order to control for false positives, as has been previously observed with psychostimulants, Cryan, J., et al. Assessing Substrates Underlying The Behavioral Effects Of Antidepressants Using The Modified Rat Forced Swimming Test. 29 Neurosci Biobehav Rev. 547-69 (2005) locomotor activity of the animals was monitored using an automated photobeam activity monitoring system. Lucki. I. The Forced Swimming Test As A Model For Core And Component Behavioral Effects Of Antidepressant Drugs. 8 Behav. Pharmacol. 522-32 (1997).

Assay [3] deals with Mycobacterium tuberculosis. The assay can be described thus: Activity against Mycobacterium tuberculosis.
A further assay has as its system serotonin receptors. The assay can be described thus: Affinity to serotonin receptors (receptor binding panel). Details: species or system human or rodent. As to the method: Evaluation of binding affinity of isolated compounds to serotonin receptors. In vitro testing of isolated compounds was completed using a small panel of receptor binding assays and then validated in a comprehensive panel by the NIMH Psychoactive Drug Screening Program. Pharmacological and functional screening of isolated molecules was performed on cloned human or rodent CNS receptors, channels, and transporters. Hu, J-F., et al. New Antiinfective and Human 5-HT2 Receptor Binding Natural and Semisynthetic Compounds from the Jamaican Sponge Smenospongia aurea. 65 Jour. of Nat. Prod. 476-80 (2002).
as §3

A further assay deals with HIV-1. The assay is described as follows: Activity against HIV-1.
The test system of another assay is DBA2/J mice. The assay can be described thus: Locomotor activity test, DBA2/J mice. Format: in vivo, mouse. To be noted: versus vehicle. On the procedure: as §2
However, Tukey's post-hoc tests confirmed that there were no statistical differences between the vehicle controls, or compounds from their respective vehicle controls (FIG. 10A). […] In DBA2/J mice, the pattern of responding in the locomotor studies was similar to that observed in the Swiss Webster mice (FIG. 10B). […] It is thus evident that the drug/dose combinations that produced antidepressant-like effects in both the FST and TST were not associated with confounding stimulant effects effect of select compounds in chick anxiety/depression model: […]

The subject of another assay is Male DBA2/J mice. The assay is described as follows: Mouse tail suspension test (TST). In kind it is in vivo. The conditions noted are these: i.p., versus vehicle. The text has this:
Based on the data collected from the FST, the antidepressant action of aaptamine. 5,6-dibromo-N,N-dimethyltryptamine, and 3-bromotyramine was examined in the mouse tail suspension test (TST), another model highly predictive of antidepressant action. Similar to the FST, this test depends on the depressive behavior elicited by the animals when placed in an inescapable situation, in this case suspending the animal by its tail. Male DBA2/J mice were used for this test.
In fact, higher doses seem to increase immobility time (FIG. 9C). […] However, such effect was only evident at the 40 mg/kg dose (compared to 10 and 20 mg/kg dose in the FST) (FIG. 9D).

For the molecule `Cc1nccc2c1C(C)(C)Nc1cc(Br)ccc1-2` [Veranamine, 8-bromo-4,5,5-trimethyl-5,6-dihydrobenzo[c][2,7]naphthyridine], the “effect on locomotor activity” value in the assay on male Swiss Webster mice [1] is “not the consequence of its stimulant activity”. Also, the “activity against HCV” value with HCV is listed as “not active”. Also, the “antidepressant-like activity / effect on immobility time in FST” value with male Swiss Webster mice [2] is recorded as “potent antidepressant activity at the dose of 20 mg/kg”. The “activity against Mycobacterium tuberculosis” value in assay [3] is “not active”. Also, the “affinities to serotonin receptors” value with serotonin receptors is recorded as “moderate affinities”. The “activity against HIV-1” value in the assay with HIV-1 is reported as “not active”.

On to `NCCc1ccc(O)c(Br)c1` [216/218, 2-(3′-bromo-4′hydroxyphenol)-ethanamine], for which the “effect on locomotor activity” value with male Swiss Webster mice [1] and in the assay on DBA2/J mice was “did not alter the locomotor activity” each time. Moreover, the “antidepressant-like action / immobility in tail suspension test” value in the assay on Male DBA2/J mice is “significant antidepressant action”. Also, the “antidepressant-like activity / effect on immobility time in FST” value in the assay on male Swiss Webster mice [2] was “dose dependent reduction in immobility”. For the same molecule, the “affinities to serotonin receptors” value in the assay on serotonin receptors was “moderate affinities”.
